Experimental data taken from patent publication US6603012B2, “RAR selective retinoid agonists” (Hoffmann-La Roche Inc., priority 2000, dated 2003).

Tested on: alveoli in rats
Test: not given
Details: postnatal administration; cited from earlier work

Row | SMILES | number of alveoli
1 | CC1=C(/C=C/C(C)=C/C=C/C(C)=C/C(=O)O)C(C)(C)CCC1 [all-trans retinoic acid] | increases the number of alveoli in rats

Tested on: not given
Test: not given
Details: not given

Row | SMILES | melting point
2 | CC1(C)CCC(C)(C)c2cc(C(Cc3ccccc3)C(=O)Oc3ccc(C(=O)O)cc3)ccc21 (racemic) [Example 3.2, (RS)-4-[3-Phenyl-2-(5,5,8,8-tetramethyl-5,6,7,8-tetrahydronaphthalen-2-yl)-propanoyloxy]-benzoic acid] | 163 to 164 °C
3 | CC1(C)CCC(C)(C)c2cc(C(Cc3ccc(C(F)(F)F)cc3)C(=O)Oc3ccc(C(=O)O)cc3)ccc21 (racemic) [Example 3.4, (RS)-4-[2-(5,5,8,8-Tetramethyl-5,6,7,8-tetrahydronaphthalen-2-yl)-3-(4-trifluoromethylphenyl)-propanoyloxy]-benzoic acid] | 158 to 159 °C
4 | CCOCCC(C(=O)Oc1ccc(C(=O)O)cc1)c1ccc2c(c1)C(C)(C)CCC2(C)C (racemic) [Example 3.5, (RS)-4-[4-Ethoxy-2-(5,5,8,8-tetramethyl-5,6,7,8-tetrahydronaphthalen-2-yl)-butanoyloxy]-benzoic acid] | 133 to 134 °C
5 | CC(/C=C/c1ccc(C(=O)O)cc1)c1ccc2c(c1)C(C)(C)CCC2(C)C (racemic) [Example 10.2, (RS)-(E)-4-[3-(5,5,8,8-Tetramethyl-5,6,7,8-tetrahydronaphthalen-2-yl)-but-1-enyl]-benzoic acid] | 203 to 204 °C
6 | CCCC(/C=C/c1ccc(C(=O)O)cc1)c1ccc2c(c1)C(C)(C)CCC2(C)C (racemic) [Example 10.3, (RS)-(E)-4-[3-(5,5,8,8-Tetramethyl-5,6,7,8-tetrahydronaphthalen-2-yl)-hex-1-enyl]-benzoic acid] | 116 to 118 °C
7 | CC=CCC(/C=C/c1ccc(C(=O)O)cc1)c1ccc2c(c1)C(C)(C)CCC2(C)C (racemic) [Example 10.4, (RS)-(E)-4-[3-(5,5,8,8-Tetramethyl-5,6,7,8-tetrahydronaphthalen-2-yl)-hepta-1,5-dienyl]-benzoic acid] | 145 to 147 °C
8 | CCCCC(/C=C/c1ccc(C(=O)O)cc1)c1ccc2c(c1)C(C)(C)CCC2(C)C (racemic) [Example 10.5, (RS)-(E)-4-[3-(5,5,8,8-Tetramethyl-5,6,7,8-tetrahydronaphthalen-2-yl)-hept-1-enyl]-benzoic acid] | 107 to 108 °C
9 | CC(C)CC(/C=C/c1ccc(C(=O)O)cc1)c1ccc2c(c1)C(C)(C)CCC2(C)C (racemic) [Example 10.7, (RS)-(E)-4-[5-Methyl-3-(5,5,8,8-tetramethyl-5,6,7,8-tetrahydronaphthalen-2-yl)-hex-1-enyl]-benzoic acid] | 61 to 78 °C
10 | CC1(C)CCC(C)(C)c2cc(C(/C=C/c3ccc(C(=O)O)cc3)Cc3ccccc3)ccc21 (racemic) [Example 10.8, (RS)-(E)-4-[4-Phenyl-3-(5,5,8,8-tetramethyl-5,6,7,8-tetrahydronaphthalen-2-yl)-but-1-enyl]-benzoic acid] | 183 to 184 °C
11 | CC1(C)CCC(C)(C)c2cc(C(/C=C/c3ccc(C(=O)O)cc3)Cc3ccc(Cl)cc3)ccc21 (racemic) [Example 10.9, (RS)-(E)-4-[4-(4-Chlorophenyl)-3-(5,5,8,8-tetramethyl-5,6,7,8-tetrahydronaphthalen-2-yl)-but-1-enyl]-benzoic acid] | 168 to 169 °C
12 | CC1(C)CCC(C)(C)c2cc(C(/C=C/c3ccc(C(=O)O)cc3)CCc3ccccc3)ccc21 (racemic) [Example 10.11, (RS)-(E)-4-[5-Phenyl-3-(5,5,8,8-tetramethyl-5,6,7,8-tetrahydronaphthalen-2-yl)-pent-1-enyl]-benzoic acid] | 78 to 79 °C
13 | CCCCCC(/C=C/c1ccc(C(=O)O)s1)c1ccc2c(c1)C(C)(C)CCC2(C)C (racemic) [Example 10.12, (RS)-(E)-5-[3-(5,5,8,8-Tetramethyl-5,6,7,8-tetrahydronaphthalen-2-yl)-oct-1-enyl]-thiophene-2-carboxylic acid] | 128 to 129 °C
14 | CC1(C)CCC(C)(C)c2cc(C(/C=C/c3ccc(C(=O)O)cc3)Cc3ccc(F)cc3)ccc21 (racemic) [Example 10.13, (RS)-(E)-4-[4-(4-Fluorophenyl)-3-(5,5,8,8-tetramethyl-5,6,7,8-tetrahydronaphthalen-2-yl)-but-1-enyl]-benzoic acid] | 168 to 169 °C
15 | COc1ccc(CC(/C=C/c2ccc(C(=O)O)cc2)c2ccc3c(c2)C(C)(C)CCC3(C)C)cc1 (racemic) [Example 10.15, (RS)-(E)-4-[4-(4-Methoxyphenyl)-3-(5,5,8,8-tetramethyl-5,6,7,8-tetrahydronaphthalen-2-yl)-but-1-enyl]-benzoic acid] | 170 to 175 °C
16 | CCCCCC(/C=C/c1ccc(C(=O)O)cc1F)c1ccc2c(c1)C(C)(C)CCC2(C)C (racemic) [Example 10.16, (RS)-(E)-3-Fluoro-4-[3-(5,5,8,8-tetramethyl-5,6,7,8-tetrahydronaphthalen-2-yl)-oct-1-enyl]-benzoic acid] | 112 to 113 °C
17 | CCCCCC(C#Cc1ccc(C(=O)O)cc1)c1ccc2c(c1)C(C)(C)CCC2(C)C (racemic) [Example 12, (RS)-4-[3-(5,5,8,8-tetramethyl-5,6,7,8-tetrahydronaphthalen-2-yl)-oct-1-ynyl]-benzoic Acid] | 115 to 116 °C
18 | COC(C(=O)Oc1ccc(C(=O)O)cc1)c1ccc2c(c1)C(C)(C)CCC2(C)C (racemic) [Example 15.2. d), (RS)-4-[methoxy-(5,5,8,8-tetramethyl-5,6,7,8-tetrahydro-naphthalen-2-yl)-acetoxy]-benzoic acid] | 190 to 195 °C
19 | CCOC(C(=O)Oc1ccc(C(=O)O)cc1)c1ccc2c(c1)C(C)(C)CCC2(C)C (racemic) [Example 15.3. d), (RS)-4-[ethoxy-(5,5,8,8-tetramethyl-5,6,7,8-tetrahydro-naphthalen-2-yl)-acetoxy]-benzoic acid] | 123 to 125 °C
20 | CCCOC(C(=O)Oc1ccc(C(=O)O)cc1)c1ccc2c(c1)C(C)(C)CCC2(C)C (racemic) [Example 15.4. d), (RS)-4-[propoxy-(5,5,8,8-tetramethyl-5,6,7,8-tetrahydro-naphthalen-2-yl)-acetoxy]-benzoic acid] | 155 to 156 °C
21 | CC1(C)CCSc2ccc(C(/C=C/c3ccc(C(=O)O)cc3)Cc3ccccc3)cc21 (racemic) [Example 40.2, (RS)-(E)-4-[3-(4,4-Dimethyl-thiochroman-6-yl)-4-phenylbut-1-enyl]-benzoic acid] | 183 to 184 °C
22 | CC1(C)CCSc2ccc(C(/C=C/c3ccc(C(=O)O)cc3)CCc3ccccc3)cc21 (racemic) [Example 40.3, (RS)-(E)-4-[3-(4,4-Dimethyl-thiochroman-6-yl)-5-phenylpent-1-enyl]-benzoic acid] | 63 to 76 °C
23 | CCCCOC(C(=O)Oc1ccc(C(=O)O)cc1)c1ccc2c(c1)C(C)(C)CCC2(C)C (single isomer, unassigned) [Example 16 (from diastereomer I), (R)- or (S)-4-[butoxy-(5,5,8,8-tetramethyl-5,6,7,8-tetrahydro-naphthalen-2-yl)-acetoxy]-benzoic acid] | 112 to 113 °C
24 | CCCCOC(C(=O)Oc1ccc(C(=O)O)cc1)c1ccc2c(c1)C(C)(C)CCC2(C)C (single isomer, unassigned) [Example 16 (from diastereomer II), (S)- or (R)-4-[butoxy-(5,5,8,8-tetramethyl-5,6,7,8-tetrahydro-naphthalen-2-yl)-acetoxy]-benzoic acid] | 113 to 114 °C
25 | CC1(C)CCC(C)(C)c2cc(CCOc3ccc(C(=O)O)cc3)ccc21 [Example 11.2, 4-[2-(5,5,8,8-Tetramethyl-5,6,7,8-tetrahydronaphthalen-2-yl)-ethyloxy]-benzoic acid] | 195 to 196 °C

Tested on: animal models of emphysema
Test: not given
Details: cited from earlier work

Row | SMILES | formation of new alveoli and elastic recoil
26 | CC1=C(/C=C/C(C)=C/C=C/C(C)=C/C(=O)O)C(C)(C)CCC1 [all-trans retinoic acid] | can induce formation of new alveoli and return elastic recoil to near normal

Tested on: elastase-induced emphysema
Test: Repair of alveoli in the rat model of elastase-induced emphysema (morphometric analysis)
Type: in vivo, male Sprague Dawley rats
Details: 0.003 mg/kg p.o., once daily starting 21 days post elastase injury
Method: RAR selective agonists were evaluated for its effects on alveolar repair in the rat model of elastase-induced emphysema in rats (D. Massaro et al. Nature Medicine (1997, 3, 675). Animals were divided into treatment groups of approximately eight. Lung inflammation and alveolar damage was induced in male Sprague Dawley rats by a single instillation of pancreatic elastase(porcine derived, Calbiochem) 2 U/gram body mass. Three weeks post injury, all-trans retinoic acid or RAR agonist was dissolved in dimethylsulfoxide (20 mg/ml) and stored at −20 C. Fresh working stocks were prepared daily by dilution in PBS to a final concentration of 2 mg/ml. Animals were dosed once daily with the retinoid by intraperitoneal injection or orally, starting 21 days post injury. Control groups were challenged with elastase and 21 days later treated with Vehicle (DMSO/PBS) for 14 days. Animals were sacrificed 24 hours after the last dose by exsanguination under deep anesthesia. The lungs were inflated with 10% neutral buffered formalin by intratracheal instillation at a constant rate (1 ml/gram body mass/min). The lung was excised and immersed in fixative for 24 hours prior to processing. Standard methods were used to prepare 5 um paraffin sections. Sections were stained with Hematoxylin and Eosin (H%E). Computerized Morphometric analysis was performed to determine the average alveolar size and alveolar number (Table 1).

Row | SMILES | % repair area
27 | CCCCCC(/C=C/c1ccc(C(=O)O)cc1)c1ccc2c(c1)C(C)(C)CCC2(C)C (racemic) [(RS)-(E)-4-[3-(5,5,8,8-tetramethyl-5,6,7,8-tetrahydronaphthalen-2-yl)-oct-1-enyl]-benzoic Acid] | 53%

Same assay, conditions: 0.01 mg/kg p.o., once daily starting 21 days post elastase injury

Row | SMILES | % repair area
28 | CCCCCC(/C=C/c1ccc(C(=O)O)cc1)c1ccc2c(c1)C(C)(C)CCC2(C)C (racemic) [(RS)-(E)-4-[3-(5,5,8,8-tetramethyl-5,6,7,8-tetrahydronaphthalen-2-yl)-oct-1-enyl]-benzoic Acid] | 49%

Same assay, conditions: 0.03 mg/kg p.o., once daily starting 21 days post elastase injury

Row | SMILES | % repair area
29 | CCCCCC(/C=C/c1ccc(C(=O)O)cc1)c1ccc2c(c1)C(C)(C)CCC2(C)C (racemic) [(RS)-(E)-4-[3-(5,5,8,8-tetramethyl-5,6,7,8-tetrahydronaphthalen-2-yl)-oct-1-enyl]-benzoic Acid] | 32%
